# pIC50: −log10 of the molar value. Like-named read-outs stand apart in the source and are kept apart here.
# Assays:
# [1] = molecular target: T1, Class D beta-lactamase, A. baumannii NCTC 13301 (OXA 23) (Acinetobacter baumannii, UniProt Q9L4P2); assay: Beta-lactamase enzyme inhibition (nitrocefin, crude enzyme); format: biochemical; conditions: Class D A. baumannii NCTC 13301 (OXA 23); read-out: Beta-lactamase enzyme inhibition IC50
# T1 construct: preincubated mixture of crude enzyme and the agents; endogenous in cells; host or cells: A. baumannii NCTC 13301
# T1 sequence (Q9L4P2 18-273): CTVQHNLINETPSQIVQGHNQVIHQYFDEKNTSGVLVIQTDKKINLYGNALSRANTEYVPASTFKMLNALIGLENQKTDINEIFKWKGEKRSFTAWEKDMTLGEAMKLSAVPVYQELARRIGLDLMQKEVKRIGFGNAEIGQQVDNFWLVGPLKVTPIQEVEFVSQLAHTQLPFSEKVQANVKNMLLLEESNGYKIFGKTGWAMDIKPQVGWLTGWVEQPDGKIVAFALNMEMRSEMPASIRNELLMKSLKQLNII
# Outline: (§1)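 Crude enzyme preincubated with inhibitor 10 min at 37 °C, then nitrocefin (100 uM) added for 5 min. Absorbance read at 485 nm; IC50 obtained from sigmoidal dose-response fit of absorbance versus concentration.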
# E. coli NCTC 13353 = assay: Zone of inhibition, compound alone and in combination with ceftazidime (agar well); format: cell-based; conditions: Escherichia coli, NCTC13353, E. coli NCTC 13353, read-out: Diameter of Zone of Inhibition; for zone of inhibition at 0.25 µg/disc: 0.25 μg/well; for zone of inhibition at 0.5 µg/disc: 0.5 μg/well; for zone of inhibition at 1 µg/disc: 1 μg/well
# Procedure: (§2) Determination of antibacterial activity of combinations according to invention: In a typical experiment, two sets of plates containing growth media (Molten Mueller Hilton Agar) and bacterial strains were prepared. One set of plates was taken as control (without ceftazidime) and other set contained ceftazidime. The media was allowed to solidify and wells were punched later. A two-fold serial dilution range of each of the compounds according to invention was prepared and 50 μl of each of the dilution was added into the punched well. […] The Table 5 provides the antibacterial activity of the combination comprising compounds according to invention and ceftazidime.
# E. coli M50 = assay: as above; format: cell-based; conditions: Escherichia coli, M50, E. coli M50, read-out: Diameter of Zone of Inhibition; for zone of inhibition at 0.25 µg/disc: 0.25 μg/well; for zone of inhibition at 0.5 µg/disc: 0.5 μg/well; for zone of inhibition at 1 µg/disc: 1 μg/well
# Procedure: as §2
# [2] = test system: T2, Class C beta-lactamase, E. coli M50 (CMY/DHA); format: biochemical; conditions: read-out: Beta-lactamase enzyme inhibition IC50
# T2 construct: no borders, tags or purification printed
# Outline: as §1
# [3] = Compound + Ceftazidime (10 μg/ml)
Structure (SMILES),pIC50 [1],zone of inhibition at 0.25 µg/disc (E. coli NCTC 13353; [3]),zone of inhibition at 0.5 µg/disc (E. coli NCTC 13353; [3]),zone of inhibition at 1 µg/disc (E. coli NCTC 13353; [3]),zone of inhibition at […] (E. coli NCTC 13353; [3]),zone of inhibition at 0.25 µg/disc (E. coli NCTC 13353; Compound alone),zone of inhibition at 0.5 µg/disc (E. coli NCTC 13353; Compound alone),zone of inhibition at 1 µg/disc (E. coli NCTC 13353; Compound alone),zone of inhibition at 0.25 µg/disc (E. coli M50; [3]),zone of inhibition at 0.5 µg/disc (E. coli M50; [3]),zone of inhibition at 1 µg/disc (E. coli M50; [3]),zone of inhibition at […] (E. coli M50; [3]),zone of inhibition at 0.25 µg/disc (E. coli M50; Compound alone),zone of inhibition at 0.5 µg/disc (E. coli M50; Compound alone),zone of inhibition at 1 µg/disc (E. coli M50; Compound alone),pIC50 [2]
"O=C(Cc1ccc(O)cc1)NNC(=O)[C@@H]1CC[C@@H]2CN1C(=O)N2OS(=O)(=O)[O-].[Na+] [Example 1, Sodium Salt of (2S,5R)-Sulfuric Acid mono-[2-(N′-(4-hydroxyphenyl-acetyl)-hydrazinocarbonyl)-7-oxo-1,6-diaza-bicyclo[3.2.1]oct-6-yl]ester]",6.50,18 mm,21 mm,25 mm,16 mm,14.5 mm,15.5 mm,17 mm,16 mm,19 mm,22 mm,13 mm,12 mm,13.5 mm,16 mm,8.30
"NCCOc1ccccc1CC(=O)NNC(=O)[C@@H]1CC[C@@H]2CN1C(=O)N2OS(=O)(=O)O [Example 2, (2S,5R)-Sulfuric Acid mono-[2-(N′-{2-[2-(2-amino-ethoxy)-phenyl]-acetyl}-hydrazinocarbonyl)-7-oxo-1,6-diaza-bicyclo[3.2.1]oct-6-yl]ester]",5.42,21 mm,24 mm,28 mm,17 mm,11 mm,14 mm,16 mm,13 mm,16.5 mm,18.5 mm,10 mm,10 mm,14 mm,16 mm,6.91

# Reference: patent US9822115B2, “Nitrogen containing compounds and their use as antibacterial agents” (WOCKHARDT LIMITED, priority 2014, dated 2017)
